{"source": "patent US12643889B2", "about": "“Synthesis of novel EP4 antagonist and use in cancer and inflammation” (Wuhan Humanwell Innovative Drug Research And Development …, priority 2020, dated 2026)", "key": {"[1]": {"test": "Mouse pharmacokinetic assay", "assay_type": "in vivo, male ICR mice", "settings": "male, ICR, plasma", "procedure": "In a mouse pharmacokinetic assay, male ICR mice (20 g to 25 g) were selected and fasted overnight. Three mice were selected and intragastrically administered with 5 mg/kg of the corresponding compound. The blood of the mice was collected before the administration and at 15 min, 30 min, 1 h, 2 h, 4 h, 8 h, 24 h after the administration. Another 3 mice were intravenously administered with 1 mg/kg of the corresponding compound, and the blood thereof was collected before the administration and at 15 min, 30 min, 1 h, 2 h, 4 h, 8 h, 24 h after the administration. The blood samples were centrifuged at 6800 g at 2° C. to 8° C. for 6 minutes, and plasma was collected and stored at −80° C. The plasma was taken at respective time point, mixed with 3-5 times the amount of acetonitrile containing internal standard, vortexed for 1 minute, centrifuged at 4° C. for 10 minutes at 13000 rpm, supernatant was added 3 times the amount of water, and the appropriate mixture was taken for LC-MS/MS analysis. The primary pharmacokinetic parameters were analyzed with a WinNonlin 7.0 software, with non-compartmental model."}, "[2]": {"tested_on": "CT-26 murine colon cancer tumor model", "test": "Anti-tumor effect in CT-26 murine colon cancer tumor model in combination with radiation therapy", "assay_type": "in vivo, mouse", "settings": "150 mg/kg intragastric once daily in combination with radiotherapy (3Gry, once on day 1); day 23; tumor weight", "procedure": "In this assay, the anti-tumor effects of the control compound and the compounds prepared in Examples 1 to 43, in combination with radiation therapy, were tested in a CT-26 murine colon cancer tumor model.\nAfter one week of adaptive feeding of mice, CT-26 cells in a log phase were resuspended in PBS, 5×10^5 CT-26 cells were inoculated subcutaneously at the right flank at 100 μL per mouse, and tumor growth was observed regularly. When the tumor grew to an average volume of 60 to 80 mm^3, the mice carrying the tumor were randomly divided into 5 groups based on the tumor volume size, each group containing 10 mice of 10. These group were a group of Control compound (150 mg/kg) in combination with radiotherapy (3Gry), a group of Compound I-2 (150 mg/kg) in combination with radiotherapy, a group of Compound I-5 (150 mg/kg) in combination with radiotherapy, a group of radiotherapy (3Gry) alone, and a group of vehicle control. The mice were intragastrically administered with the corresponding compound once daily, for 23 days in total; radiation therapy was performed for one-time on the first day of the administration. Tumor volumes and mouse body weights were measured twice a week, and tumor weights were weighed at the end of the experiment. Efficacy evaluations were performed based on relative tumor inhibition (TGI), safety evaluations were performed based on changes in animal body weight and death. Tumor volume and relative tumor inhibition were calculated as follows:\nTumor volume (TV)=½×a×b^2, where a and b are the length and width of the tumor measurement, respectively.\nRelative tumor inhibition rate TGI (%)=(TWc−TWt/TWc)×100%, where TWc is the mean tumor weight of the vehicle control group and TW is the mean tumor weight of the treatment group."}, "[3]": {"biological_target": "T1, human EP4 receptor (Homo sapiens, UniProt P35408)", "T1 sequence (P35408 whole entry)": "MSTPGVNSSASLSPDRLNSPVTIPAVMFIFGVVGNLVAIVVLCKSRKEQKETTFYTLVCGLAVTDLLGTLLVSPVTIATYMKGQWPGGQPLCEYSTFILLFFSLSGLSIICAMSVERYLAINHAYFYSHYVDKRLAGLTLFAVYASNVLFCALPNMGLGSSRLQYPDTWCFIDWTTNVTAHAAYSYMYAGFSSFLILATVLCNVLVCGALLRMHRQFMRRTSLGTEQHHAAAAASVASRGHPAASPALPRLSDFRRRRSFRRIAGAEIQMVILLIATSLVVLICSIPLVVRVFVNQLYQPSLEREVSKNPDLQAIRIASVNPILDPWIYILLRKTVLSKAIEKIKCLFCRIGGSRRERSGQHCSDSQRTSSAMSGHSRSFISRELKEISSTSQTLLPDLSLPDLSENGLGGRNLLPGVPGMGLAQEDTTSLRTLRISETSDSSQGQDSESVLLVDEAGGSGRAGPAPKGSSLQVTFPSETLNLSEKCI", "test": "Assay of calcium current inhibition on EP4 receptor (FLIPR, 293 cells)", "assay_type": "cell-based", "parameters": "expressed in transfected cells; host or cells: 293 cells", "settings": "293 cells overexpressing human EP4; PGE2 at EC80; FLIPR", "procedure": "The cells were rapidly thawed in a 37° C. water bath, centrifuged, resuspended, and counted. The cell suspensions were seeded at 20 μL/well in two 384-well plates (20,000 cells/well) and placed in an incubator (a 37° C., 5% CO2) overnight. Preparation of a 2× Fluo-4 Direct™ (Invitrogen, Cat #F10471) loading buffer: 77 mg of probenecid was added to 1 mL of a FLIPR buffer, with a concentration of 250 mM. 10 mL of FLIPR buffer and 0.2 mL of probenecid (250 mM) were added to each tube of Fluo-4 Direct™ crystals (F10471).\nOne of the cell plates was taken out of the incubator and the medium was removed. 20 μL of an assay buffer and 2× Fluo-4 Direct™ non-wash loading buffer were added to the 384-well cell culture plate to a final volume of 40 μL, and then the culture plate was incubated in an incubator (a 37° C., 5% CO2) for 50 minutes, and then at room temperature for 10 minutes, and then the plate was placed in the FLIPR. 10 μL of the buffer was transferred to the cell plate and the fluorescence signal was read. The agonist PGE2 was formulated as a 10 mM stock in a DMSO solvent and 10 concentration points of the 6× working solution were serially diluted using the buffer. 10 μL of the agonist PGE2 was transferred to the cell plate, the fluorescence signal was read to calculate EC80 value.\nThe agonist PGE2 was prepared at 6× EC80 concentration and the compound to be tested was formulated as a 10 mM stock solution in the DMSO solvent and 10 concentration points of the 6× compound working solution was serially diluted using the buffer.\nAnother cell plate was taken to remove media and 20 μL of the assay buffer and 2× Fluo-4 Direct™ non-wash loading buffer were added; the cell plate was incubated in a 37° C., 5% CO2 incubator for 50 minutes and room temperature for 10 minutes and then placed in the FLIPR. 10 μL of the compound working solution, DMSO, and the EP4 full antagonist were transferred to the cell plate and the fluorescence signal was read. […] Inhibition (%)=100−(test group−EP4 full antagonist group)/(DMSO group−EP4 full antagonist group)*100\nCompound's IC50 value of EP4 calcium current inhibition was calculated based on the inhibition rate at different concentrations of the compound."}, "[4]": {"biological_target": "T1, human EP4 receptor", "test": "Assay for EP4 antagonistic effect (cAMP, PGE2-stimulated CHO stable cell line)"}, "[5]": {"settings": "intravenous administration 1 mg/kg"}, "[6]": {"settings": "oral gavage administration 5 mg/kg"}}, "data": [{"smiles": "C[C@H](NC(=O)c1c(C(F)F)nn(C)c1Oc1cccc(C(C)(F)F)c1)c1ccc(C(=O)O)cc1", "note": "[Compound I-5, (S)-4-(1-(5-(3-(1,1-difluoroethyl)phenoxy)-3-(difluoromethyl)-1-methyl-1H-pyrazole-4-carboxamido)ethyl)benzoic Acid]", "values": [{"measurement": "AUC(0-t)", "setting": "[1]; [5]", "result": 1260, "unit": "ng·h/mL"}, {"measurement": "clearance", "setting": "[1]; [5]", "result": 12.7, "unit": "mL/min/kg"}, {"measurement": "half-life", "setting": "[1]; [5]", "result": 307, "unit": "min"}, {"measurement": "Vd", "setting": "[1]; intravenous administration 1 mg/kg, read-out: Vz", "result": 5.62, "unit": "L/kg"}, {"measurement": "AUC(0-t)", "setting": "[1]; [6]", "result": 2710, "unit": "ng·h/mL"}, {"measurement": "Cmax", "setting": "[1]; [6]", "result": 1450, "unit": "ng/mL"}, {"measurement": "Tmax", "setting": "[1]; [6]", "result": 19.8, "unit": "min"}, {"measurement": "half-life", "setting": "[1]; [6]", "result": 420, "unit": "min"}, {"measurement": "relative tumor inhibition rate TGI (%)", "setting": "[2]", "result": 79, "unit": "%"}, {"measurement": "IC50", "setting": "[3]", "result": 12, "unit": "nM"}, {"measurement": "IC50", "setting": "[4]", "result": 2.2, "unit": "nM"}]}]}
